Laboratory results as given in US11384366B2, “Lentiviral vector capable of directly reflecting type I interferon response, preparation method thereof, and applications thereof” (Fantasia Biopharma (Zhejiang) Co. Ltd., priority 2016, dated 2022).

Key:
IRF3 dimers = assay: IRF3 dimer luciferase signal in THP-1 (IRF3-BiLC) under different stimulations; assay type: cell-based, human; conditions: FIG. 2a
IRF5 dimers = assay: IRF5 dimer luciferase signal in THP-1 (IRF5-BiLC) under different stimulations; assay type: cell-based, human; conditions: FIG. 2b
IRF7 dimers = assay: IRF7 dimer luciferase signal in THP-1 (IRF7-BiLC) under different stimulations; assay type: cell-based, human; conditions: FIG. 2c
IRF3-BiLC = assay: Effect of CHX on IRF3-BiLC in THP-1 (IRF3-BiLC) cells; assay type: cell-based, human; conditions: CHX 100 ng/mL for 10 h, with or without polydA:dT stimulation; normalized to untreated groups; FIG. 5
Protocol: (§1) THP-1-Dual and THP-1 (IRF3-BiLC) cells were plated at a concentration of 1000,000 cells per mL in a 24-well plate. 4 groups were arranged for THP-1-Dual and THP-1 cells respectively, resulting in a total of 8 groups. After 12 hours, for THP-1-Dual cells, two groups of cells were transfected with Lipo2000 and stimulated with […] of polydA:dT, and the other two groups were not treated. The same treatment was performed for THP-1 (IRF3-BiLC). 4 hours after transfection, for the 2 groups of THP-1-Dual cells that were transfected and stimulated with polydA:dT, CHX with a final concentration of 100 ng/mL was added into one group. For the 2 groups of THP-1-Dual cells that were not treated, CHX with a final concentration of 100 ng/mL was added into one group. The other two groups were not treated. The same treatment was performed for THP-1 (IRF3-BiLC).
(§2) After 10 h of CHX treatment, for THP-1-Dual cells, 40 μL of supernatant was taken respectively to detect the luciferase activity. For THP-1 (IRF3-BiLC), 80 μL of Renilla luciferase lysate (purchased from Promega, E2820) was used to lyse on ice for 10 min. […] 20 μL of Renilla luciferase substrate (purchased from Promega, E2820) was added into each well, and the luciferase activity was detected by a microplate reader (purchased from Bio-Tek, Synergy H1).
(§3) The detected values of luciferase were normalized with regard to the untreated groups.

ISRE-Luc = assay: Effect of CHX on ISRE-Luc in THP-1-Dual cells; assay type: cell-based; conditions: CHX 100 ng/mL for 10 h, with or without polydA:dT stimulation; normalized to untreated groups; FIG. 6
Protocol: as §1, §2, §3

Row | Molecule | signals of the IRF3 dimers (luciferase activity) (IRF3 dimers) | signals of the IRF5 dimers (luciferase activity) (IRF5 dimers) | signals of the IRF7 dimers (luciferase activity) (IRF7 dimers) | effect of CHX on IRF3-BiLC luciferase activity (IRF3-BiLC) | effect of CHX on ISRE-Luc luciferase activity (ISRE-Luc)
1 | TNFa | cannot cause the formation of the signals | cannot cause the formation of the signals | cannot cause the formation of the signals | – | –
2 | IL-1B: stimulus used on the THP-1 BiLC reporter cell lines | cannot cause the formation of the signals | cannot cause the formation of the signals | cannot cause the formation of the signals | – | –
3 | C[C@@H]1C[C@@H]([C@H](O)CC2CC(=O)NC(=O)C2)C(=O)[C@@H](C)C1 [CHX] | – | – | – | capable of reflecting the intracellular type I interferon response reaction | affected significantly
